From patent US7750003B2, “Compounds-943” (AstraZeneca AB, priority 2006, dated 2010)

What follows are compounds tested against recombinant mTOR (FLAG-tagged, residues 1362-2549) (Homo sapiens, UniProt P42345) (assay: In vitro mTOR kinase assay (Test (a), AlphaScreen)). Settings: ATP 20 μM, read-out: Test (a): IC50 versus mTOR kinase.
Chain of recombinant mTOR (FLAG-tagged, residues 1362-2549) (P42345 1362-2549): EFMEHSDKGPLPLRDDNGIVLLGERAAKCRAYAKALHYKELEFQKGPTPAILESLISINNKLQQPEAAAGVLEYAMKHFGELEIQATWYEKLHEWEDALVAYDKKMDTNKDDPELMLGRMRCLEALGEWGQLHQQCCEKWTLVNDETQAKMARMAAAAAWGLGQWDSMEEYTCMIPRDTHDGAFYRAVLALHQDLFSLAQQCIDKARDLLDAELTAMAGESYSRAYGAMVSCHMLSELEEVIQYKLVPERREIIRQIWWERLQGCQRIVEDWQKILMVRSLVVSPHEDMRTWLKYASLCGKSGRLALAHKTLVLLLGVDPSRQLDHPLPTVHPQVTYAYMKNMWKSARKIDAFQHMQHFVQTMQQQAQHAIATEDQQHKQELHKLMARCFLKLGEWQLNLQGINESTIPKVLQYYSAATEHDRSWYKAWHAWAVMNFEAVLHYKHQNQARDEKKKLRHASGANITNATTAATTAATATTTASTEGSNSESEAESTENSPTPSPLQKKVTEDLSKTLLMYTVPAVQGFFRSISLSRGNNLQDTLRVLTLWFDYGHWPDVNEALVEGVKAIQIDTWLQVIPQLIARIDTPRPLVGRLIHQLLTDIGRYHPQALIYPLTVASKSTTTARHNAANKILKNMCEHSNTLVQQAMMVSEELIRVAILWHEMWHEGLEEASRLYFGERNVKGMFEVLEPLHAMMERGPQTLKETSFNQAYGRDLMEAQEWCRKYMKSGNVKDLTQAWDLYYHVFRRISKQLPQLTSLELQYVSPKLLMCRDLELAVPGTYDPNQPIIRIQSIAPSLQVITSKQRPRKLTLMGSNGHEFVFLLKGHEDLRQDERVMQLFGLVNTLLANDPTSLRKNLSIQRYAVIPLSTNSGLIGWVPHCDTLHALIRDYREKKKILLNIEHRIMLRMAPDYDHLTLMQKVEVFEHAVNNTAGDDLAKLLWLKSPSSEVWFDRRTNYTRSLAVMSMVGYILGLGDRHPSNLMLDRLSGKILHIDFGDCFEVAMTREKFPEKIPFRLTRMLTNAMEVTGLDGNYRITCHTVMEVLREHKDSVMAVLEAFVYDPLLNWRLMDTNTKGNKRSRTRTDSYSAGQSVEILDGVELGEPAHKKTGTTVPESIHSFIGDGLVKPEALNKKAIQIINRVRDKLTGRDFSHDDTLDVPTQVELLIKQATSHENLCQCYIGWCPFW
Type: biochemical
Method in brief: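 AlphaScreen read-out: a phospho-T389 p70 S6K antibody on acceptor beads captures the phosphorylated biotin-peptide on donor beads, with signal loss indicating inhibition.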
`C[C@H]1COCCN1c1cc(CN(C)C2CC2)nc(-c2ccc(NC(=O)NCc3cnn(C)c3)cc2)n1` [Example 52b, 1-[4-[4-[(cyclopropyl-methyl-amino)methyl]-6-[(3S)-3-methylmorpholin-4-yl]pyrimidin-2-yl]phenyl]-3-[(1-methylpyrazol-4-yl)methyl]urea] was tested, and the IC50 was 570 nM. With `CC(=O)NCCS(=O)(=O)Cc1cc(N2CCOC[C@@H]2C)nc(-c2ccc(NC(=O)NCc3cnn(C)c3)cc2)n1` [Example 53, N-[2-[[6-[(3S)-3-methylmorpholin-4-yl]-2-[4-[(1-methylpyrazol-4-yl)methylcarbamoylamino]phenyl]pyrimidin-4-yl]methylsulfonyl]ethyl]acetamide] the IC50 was 640 nM. Compound `C[C@H]1COCCN1c1cc(CS(=O)(=O)CC(N)=O)nc(-c2ccc(NC(=O)NCc3cnn(C)c3)cc2)n1` [Example 53a] has an IC50 of 600 nM. Work on `C[C@H]1COCCN1c1cc(CS(=O)(=O)c2ccncc2)nc(-c2ccc(NC(=O)NCc3cnn(C)c3)cc2)n1` [Example 53c, 1-[4-[4-[(3S)-3-methylmorpholin-4-yl]-6-(pyridin-4-ylsulfonylmethyl)pyrimidin-2-yl]phenyl]-3-[(1-methylpyrazol-4-yl)methyl]urea] yielded an IC50 of 30 nM. `C[C@H]1COCCN1c1cc(CS(=O)(=O)C2CC2)nc(-c2ccc(NC(=O)NC3CC3)cc2)n1` [Example 55, 3-Cyclopropyl-1-[4-[4-(cyclopropylsulfonylmethyl)-6-[(3S)-3-methylmorpholin-4-yl]pyrimidin-2-yl]phenyl]urea] showed an IC50 of 62 nM. With `C[C@H]1COCCN1c1cc(C(C)(C)S(=O)(=O)C2CC2)nc(-c2ccc(NC(=O)NC3CC3)cc2)n1` [Example 56, 3-Cyclopropyl-1-[4-[4-(2-cyclopropylsulfonylpropan-2-yl)-6-[(3S)-3-methylmorpholin-4-yl]pyrimidin-2-yl]phenyl]urea] the IC50 was 2400 nM. With `CCNC(=O)Nc1ccc(-c2nc(CS(=O)(=O)c3ccccn3)cc(N3CCOC[C@@H]3C)n2)cc1` [Example 71, 3-Ethyl-1-[4-[4-[(3S)-3-methylmorpholin-4-yl]-6-(pyridin-2-ylsulfonylmethyl)pyrimidin-2-yl]phenyl]urea] the IC50 was 32 nM.

What follows are compounds tested on phosphorylation of Serine 473 in Akt in MDA-MB-468 human breast adenocarcinoma cells (assay: In vitro phospho-Ser473 Akt assay (Test (c))). Settings: Homo sapiens, MDA-MB-468, 2 h, MDA-MB-468 cells, 2 hours incubation; read-out: Test (c): IC50 versus Serine 473 in Akt.
Type: cell-based
Experimental: (c) In Vitro Phospho-Ser473 Akt Assay
This assay determines the ability of test compounds to inhibit phosphorylation of Serine 473 in Akt as assessed using Acumen Explorer technology (Acumen Bioscience Limited), a plate reader that can be used to rapidly quantitate features of images generated by laser-scanning.
A MDA-MB-468 human breast adenocarcinoma cell line (LGC Promochem, Teddington, Middlesex, UK, Catalogue No. HTB-132) was routinely maintained at 37° C. with 5% CO2 up to a confluency of 70-90% in DMEM containing 10% heat-inactivated FCS and 1% L-glutamine.
For the assay, the cells were detached from the culture flask using ‘Accutase’ (Innovative Cell Technologies Inc., San Diego, Calif., USA; Catalogue No. AT104) using standard tissue culture methods and resuspended in media to give 1.7×10^5 cells per mL. Aliquots (90 μl) were seeded into each of the inner 60 wells of a black Packard 96 well plate (PerkinElmer, Boston, Mass., USA; Catalogue No. 6005182) to give a density of 15000 cells per well. Aliquots (90 μl) of culture media were placed in the outer wells to prevent edge effects. The cells were incubated overnight at 37° C. with 5% CO2 to allow them to adhere.
On day 2, the cells were treated with test compounds and incubated for 2 hours at 37° C. with 5% CO2. Test compounds were prepared as 10 mM stock solutions in DMSO and serially diluted as required with growth media to give a range of concentrations that were 10-fold the required final test concentrations. Aliquots (10 μl) of each compound dilution were placed in a well (in triplicate) to give the final required concentrations. As a minimum response control, each plate contained wells having a final concentration of 100 μM LY294002 (Calbiochem, Beeston, UK, Catalogue No. 440202). As a maximum response control, wells contained 1% DMSO instead of test compound. Following incubation, the contents of the plates were fixed by treatment with a 1.6% aqueous formaldehyde solution (Sigma, Poole, Dorset, UK, Catalogue No. F1635) at room temperature for 1 hour.
All subsequent aspiration and wash steps were carried out using a Tecan 96 well plate washer (aspiration speed 10 mm/sec). The fixing solution was removed and the contents of the plates were washed with phosphate-buffered saline (PBS; 50 μl; Gibco, Catalogue No. 10010015). The contents of the plates were treated for 10 minutes at room temperature with an aliquot (50 μl) of a cell permeabilisation buffer consisting of a mixture of PBS and 0.5% Tween-20. The ‘permeabilisation’ buffer was removed and non-specific binding sites were blocked by treatment for 1 hour at room temperature of an aliquot (50 μl) of a blocking buffer consisting of 5% dried skimmed milk [‘Marvel’ (registered trade mark); Premier Beverages, Stafford, GB] in a mixture of PBS and 0.05% Tween-20. The ‘blocking’ buffer was removed and the cells were incubated for 1 hour at room temperature with rabbit anti phospho-Akt (Ser473) antibody solution (50 μl per well; Cell Signalling, Hitchin, Herts, U.K., Catalogue No 9277) that had been diluted 1:500 in ‘blocking’ buffer. Cells were washed three times in a mixture of PBS and 0.05% Tween-20. Subsequently, cells were incubated for 1 hour at room temperature with Alexafluor488 labelled goat anti-rabbit IgG (50 μl per well; Molecular Probes, Invitrogen Limited, Paisley, UK, Catalogue No. A11008) that had been diluted 1:500 in ‘blocking’ buffer. Cells were washed 3 times with a mixture of PBS and 0.05% Tween-20. An aliquot of PBS (50 μl) was added to each well and the plates were sealed with black plate sealers and the fluorescence signal was detected and analysed.
Fluorescence dose response data obtained with each compound were analysed and the degree of inhibition of Serine 473 in Akt was expressed as an IC50 value.
`C[C@H]1COCCN1c1cc(CS(C)(=O)=O)nc(-c2ccc(NC(=O)Nc3cccc(=O)[nH]3)cc2)n1` [Example 22c, 1-[4-[4-[(3S)-3-methylmorpholin-4-yl]-6-(methylsulfonylmethyl)pyrimidin-2-yl]phenyl]-3-(6-oxo-1H-pyridin-2-yl)urea] was tested, and the IC50 was 210 nM. `CCNC(=O)Nc1ncc(-c2nc(N3CCOC[C@@H]3C)cc(C(C)(C)S(C)(=O)=O)n2)cn1` [Example 24af, 1-ethyl-3-[5-[4-[(3S)-3-methylmorpholin-4-yl]-6-(2-methylsulfonylpropan-2-yl)pyrimidin-2-yl]pyrimidin-2-yl]urea] was tested, and the IC50 was 1400 nM. `C[C@H]1COCCN1c1cc(C(C)(C)S(C)(=O)=O)nc(-c2cnc(NC(=O)NC3CC3)nc2)n1` [Example 24ag, 3-cyclopropyl-1-[5-[4-[(3S)-3-methylmorpholin-4-yl]-6-(2-methylsulfonylpropan-2-yl)pyrimidin-2-yl]pyrimidin-2-yl]urea] showed an IC50 of 320 nM. Compound `CNC(=O)Nc1ccc(-c2nc(N3CCOC[C@@H]3C)cc(C(C)(C)S(C)(=O)=O)n2)cn1` [Example 24ah, 3-methyl-1-[5-[4-[(3S)-3-methylmorpholin-4-yl]-6-(2-methylsulfonylpropan-2-yl)pyrimidin-2-yl]pyridin-2-yl]urea] has an IC50 of 510 nM. With `CCNC(=O)Nc1ccc(-c2nc(N3CCOC[C@@H]3C)cc(C(C)(C)S(C)(=O)=O)n2)cn1` [Example 24ai, 1-ethyl-3-[5-[4-[(3S)-3-methylmorpholin-4-yl]-6-(2-methylsulfonylpropan-2-yl)pyrimidin-2-yl]pyridin-2-yl]urea] the IC50 was 260 nM. `C[C@H]1COCCN1c1cc(C(C)(C)S(C)(=O)=O)nc(-c2ccc(NC(=O)NC3CC3)nc2)n1` [Example 24aj, 3-cyclopropyl-1-[5-[4-[(3S)-3-methylmorpholin-4-yl]-6-(2-methylsulfonylpropan-2-yl)pyrimidin-2-yl]pyridin-2-yl]urea] gave an IC50 of 450 nM. `CCCNC(=O)Nc1ccc(-c2nc(N3CCOC[C@@H]3C)cc(C(C)(C)S(C)(=O)=O)n2)cc1` [Example 24ak, 3-[4-[4-[(3S)-3-methylmorpholin-4-yl]-6-(2-methylsulfonylpropan-2-yl)pyrimidin-2-yl]phenyl]-1-propyl-urea] gave an IC50 of 210 nM. In the case of `CC(C)NC(=O)Nc1ccc(-c2nc(N3CCOC[C@@H]3C)cc(C(C)(C)S(C)(=O)=O)n2)cc1` [Example 24al, 1-[4-[4-[(3S)-3-methylmorpholin-4-yl]-6-(2-methylsulfonylpropan-2-yl)pyrimidin-2-yl]phenyl]-3-propan-2-yl-urea], the IC50 is reported as 38 nM. `C[C@H]1COCCN1c1cc(C(C)(C)S(C)(=O)=O)nc(-c2ccc(NC(=O)NC3CCC3)cc2)n1` [Example 24am, 3-cyclobutyl-1-[4-[4-[(3S)-3-methylmorpholin-4-yl]-6-(2-methylsulfonylpropan-2-yl)pyrimidin-2-yl]phenyl]urea] was tested, and the IC50 was 210 nM. For `C[C@H]1COCCN1c1cc(C(C)(C)S(C)(=O)=O)nc(-c2ccc(NC(=O)NC(C)(C)CO)cc2)n1` [Example 24an, 3-(1-hydroxy-2-methyl-propan-2-yl)-1-[4-[4-[(3S)-3-methylmorpholin-4-yl]-6-(2-methylsulfonylpropan-2-yl)pyrimidin-2-yl]phenyl]urea], the IC50 was 1800 nM. Compound `C[C@H]1COCCN1c1cc(C(C)(C)S(C)(=O)=O)nc(-c2ccc(NC(=O)NCc3cccnc3)cc2)n1` [Example 24ao, 1-[4-[4-[(3S)-3-methylmorpholin-4-yl]-6-(2-methylsulfonylpropan-2-yl)pyrimidin-2-yl]phenyl]-3-(pyridin-3-ylmethyl)urea] has an IC50 of 240 nM. `C[C@H](CO)NC(=O)Nc1ccc(-c2nc(N3CCOC[C@@H]3C)cc(C(C)(C)S(C)(=O)=O)n2)cc1` [Example 24ap, 3-[(2R)-1-hydroxypropan-2-yl]-1-[4-[4-[(3S)-3-methylmorpholin-4-yl]-6-(2-methylsulfonylpropan-2-yl)pyrimidin-2-yl]phenyl]urea] gave an IC50 of 77 nM. Compound `C[C@H]1COCCN1c1cc(C(C)(C)S(C)(=O)=O)nc(-c2ccc(NC(=O)NCC3CC3)cc2)n1` [Example 24aq, 3-(cyclopropylmethyl)-1-[4-[4-[(3S)-3-methylmorpholin-4-yl]-6-(2-methylsulfonylpropan-2-yl)pyrimidin-2-yl]phenyl]urea] has an IC50 of 2000 nM. For `C[C@H]1COCCN1c1cc(C(C)(C)S(C)(=O)=O)nc(-c2ccc(NC(=O)NCc3ccncc3)cc2)n1` [Example 24ar, 1-[4-[4-[(3S)-3-methylmorpholin-4-yl]-6-(2-methylsulfonylpropan-2-yl)pyrimidin-2-yl]phenyl]-3-(pyridin-4-ylmethyl)urea], the IC50 was 49 nM. With `C[C@H]1COCCN1c1cc(C(C)(C)S(C)(=O)=O)nc(-c2ccc(NC(=O)NCCCO)cc2)n1` [Example 24as, 3-(3-hydroxypropyl)-1-[4-[4-[(3S)-3-methylmorpholin-4-yl]-6-(2-methylsulfonylpropan-2-yl)pyrimidin-2-yl]phenyl]urea] the IC50 was 220 nM.

Same assay, conditions: MDA-MB-468 cells, 2 hours incubation; read-out: Test (c): IC50 versus Serine 473 in Akt
“1-[4-[4-[(3S)-3-methylmorpholin- 4-yl]-6-(2-propan-2- yl]phenyl]-3-pyridin-2-yl-urea [Example 60u]” was tested, and the IC50 was 160 nM.
